From patent US20090111778A1, “2-Keto-Oxazoles as Modulators of Fatty Acid Amide Hydrolase” (priority 2005, published 2009)

How the values were obtained:
[1] = target: T1, rat FAAH (Rattus norvegicus, UniProt P97612); experiment: Assay Method 2: FAAH assay, hydrolysis of 3H-anandamide by homogenate of SK-N-MC cells transfected with rat FAAH; assay type: biochemical; details: T84 or transfected SK-N-MC cell homogenate, 3H-AEA tracer 80 nM, rt 1 h, pH 9
T1 construct: expressed in transfected cells
T1 sequence (P97612 1-579): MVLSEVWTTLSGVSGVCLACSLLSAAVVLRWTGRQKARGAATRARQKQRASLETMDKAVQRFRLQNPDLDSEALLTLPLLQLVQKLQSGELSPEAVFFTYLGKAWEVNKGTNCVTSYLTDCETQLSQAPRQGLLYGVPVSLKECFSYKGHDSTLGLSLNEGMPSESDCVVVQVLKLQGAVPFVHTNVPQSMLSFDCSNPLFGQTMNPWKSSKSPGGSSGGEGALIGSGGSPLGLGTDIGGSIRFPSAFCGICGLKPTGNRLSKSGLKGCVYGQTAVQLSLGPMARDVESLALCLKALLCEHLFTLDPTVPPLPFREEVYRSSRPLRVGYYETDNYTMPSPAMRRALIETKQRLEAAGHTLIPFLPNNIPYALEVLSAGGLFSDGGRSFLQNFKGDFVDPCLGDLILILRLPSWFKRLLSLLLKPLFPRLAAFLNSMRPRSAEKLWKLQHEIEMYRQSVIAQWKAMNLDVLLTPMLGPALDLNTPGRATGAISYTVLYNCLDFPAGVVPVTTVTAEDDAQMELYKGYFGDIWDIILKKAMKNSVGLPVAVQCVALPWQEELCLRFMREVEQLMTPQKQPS
Procedure: A. Transfection of Cells with Rat FAAH A 10-cm tissue culture dish with a confluent monolayer of SK-N-MC cells was split 2 days (d) prior to transfection. Using sterile technique, the media was removed and the cells were detached from the dish by the addition of trypsin. One fifth of the cells were then placed onto a new 10-cm dish. Cells were grown in a 37° C. incubator with 5% CO2 in Minimal Essential Media Eagle with 10% Fetal Bovine Serum. After 2 d, cells were approximately 80% confluent. These cells were removed from the dish with trypsin and pelleted in a clinical centrifuge. The pellet was re-suspended in 400 μL complete media and transferred to an electroporation cuvette with a 0.4 cm gap between the electrodes. Supercoiled rat FAAH cDNA (1 μg) was added to the cells and mixed. The voltage for the electroporation was set at 0.25 kV, and the capacitance was set at 960 μF. After electroporation, the cells were diluted into complete media (10 mL) and plated onto four 10-cm dishes. Because of the variability in the efficiency of electroporation, four different concentrations of cells were plated. The ratios used were 1:20, 1:10, and 1:5, with the remainder of the cells being added to the fourth dish. The cells were allowed to recover for 24 h before adding the selection media (complete media with 600 μg/mL G418). After 10 d, dishes were analyzed for surviving colonies of cells. Dishes with well-isolated colonies were used. Cells from individual colonies were isolated and tested. […] B. FAAH Assay […] The reaction mixture was incubated at rt for 1 h. During the incubation, 96-well Multiscreen filter plates (catalog number MAFCNOB50; Millipore, Bedford, Mass., USA) were loaded with 25 μL of activated charcoal (Multiscreen column loader, catalog number MACL09625, Millipore) and washed once with 100 μL of MeOH. Also during the incubation, 96-well DYNEX MicroLite plates (catalog number NL510410) were loaded with 100 μL of MicroScint40 (catalog number 6013641, Packard Bioscience, Meriden, Conn., USA). After the 1 h incubation, 60 μL of the reaction mixture were transferred to the charcoal plates, which were then assembled on top of the DYNEX plates using Centrifuge Alignment Frames (catalog number MACF09604, Millipore). The unbound labeled ethanolamine was centrifuged through to the bottom plate (5 min at 2000 rpm), which was preloaded with the scintillant, as described above. The plates were sealed and left at rt for 1 h before counting on a Hewlett Packard TopCount.

[2] = target: T2, human FAAH (Homo sapiens, UniProt O00519); experiment: Assay Method 1: FAAH assay, hydrolysis of 3H-anandamide by homogenate of SK-N-MC cells transfected with human FAAH; assay type: biochemical; details: human FAAH; T84 or transfected SK-N-MC cell homogenate; 3H-AEA tracer 80 nM; rt 1 h; pH 9; read-out: Assay 1 IC50
T2 construct: expressed in transfected cells
T2 sequence (O00519 1-579): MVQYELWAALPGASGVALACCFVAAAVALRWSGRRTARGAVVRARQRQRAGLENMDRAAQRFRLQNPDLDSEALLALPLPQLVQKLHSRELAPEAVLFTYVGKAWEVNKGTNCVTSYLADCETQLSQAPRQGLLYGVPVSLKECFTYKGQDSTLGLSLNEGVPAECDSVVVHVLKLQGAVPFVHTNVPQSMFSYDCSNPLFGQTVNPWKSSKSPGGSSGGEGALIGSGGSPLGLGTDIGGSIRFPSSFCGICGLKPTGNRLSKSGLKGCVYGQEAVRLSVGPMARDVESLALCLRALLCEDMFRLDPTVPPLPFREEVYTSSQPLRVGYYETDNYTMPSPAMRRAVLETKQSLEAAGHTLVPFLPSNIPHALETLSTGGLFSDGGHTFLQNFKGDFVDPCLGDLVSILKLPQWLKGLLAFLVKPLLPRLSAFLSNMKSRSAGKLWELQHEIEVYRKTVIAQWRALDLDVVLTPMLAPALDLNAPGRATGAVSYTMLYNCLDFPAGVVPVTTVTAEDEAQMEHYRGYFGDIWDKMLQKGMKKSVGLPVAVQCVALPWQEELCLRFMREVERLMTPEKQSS
Procedure: A. Transfection of Cells with Human FAAH
A 10-cm tissue culture dish with a confluent monolayer of SK-N-MC cells was split 2 days (d) prior to transfection. Using sterile technique, the media was removed and the cells were detached from the dish by the addition of trypsin. One fifth of the cells were then placed onto a new 10-cm dish. Cells were grown in a 37° C. incubator with 5% CO2 in Minimal Essential Media Eagle with 10% Fetal Bovine Serum. After 2 d, cells were approximately 80% confluent. These cells were removed from the dish with trypsin and pelleted in a clinical centrifuge. The pellet was re-suspended in 400 μL complete media and transferred to an electroporation cuvette with a 0.4 cm gap between the electrodes. Supercoiled human FAAH cDNA (1 μg) was added to the cells and mixed. The voltage for the electroporation was set at 0.25 kV, and the capacitance was set at 960 μF. After electroporation, the cells were diluted into complete media (10 mL) and plated onto four 10-cm dishes. Because of the variability in the efficiency of electroporation, four different concentrations of cells were plated. The ratios used were 1:20, 1:10, and 1:5, with the remainder of the cells being added to the fourth dish. The cells were allowed to recover for 24 h before adding the selection media (complete media with 600 μg/mL G418). After 10 d, dishes were analyzed for surviving colonies of cells. Dishes with well-isolated colonies were used. Cells from individual colonies were isolated and tested.
The assay mixture consisted of […] of the cell homogenate, 10 μL of the test compound, and 40 μL of anandamide [1-^3H-ethanolamine] (3H-AEA, Perkin-Elmer, 10.3 Ci/mmol), which was added last, for a final tracer concentration of 80 nM. The reaction mixture was incubated at rt for 1 h. During the incubation, 96-well Multiscreen filter plates (catalog number MAFCNOB50; Millipore, Bedford, Mass., USA) were loaded with 25 μL of activated charcoal (Multiscreen column loader, catalog number MACL09625, Millipore) and washed once with 100 μL of MeOH. Also during the incubation, 96-well DYNEX MicroLite plates (catalog number NL510410) were loaded with 100 μL of MicroScint40 (catalog number 6013641, Packard Bioscience, Meriden, Conn., USA). After the 1 h incubation, 60 μL of the reaction mixture were transferred to the charcoal plates, which were then assembled on top of the DYNEX plates using Centrifuge Alignment Frames (catalog number MACF09604, Millipore). The unbound labeled ethanolamine was centrifuged through to the bottom plate (5 min at 2000 rpm), which was preloaded with the scintillant, as described above. The plates were sealed and left at rt for 1 h before counting on a Hewlett Packard TopCount.

| Compound | IC50 [1] | IC50 [2] |
| --- | --- | --- |
| O=C(CCCC1CCN(Cc2cccc(F)c2)CC1)c1ncco1 [Example 8, 4-[1-(3-Fluoro-benzyl)-piperidin-4-yl]-1-oxazol-2-yl-butan-1-one] | 350 nM | 100 nM |
| O=C(CCCC1CCN(C(=O)C2CCCCC2)CC1)c1ncco1 [Example 29, 4-(1-Cyclohexanecarbonyl-piperidin-4-yl)-1-oxazol-2-yl-butan-1-one] | 180 nM | 45 nM |
| O=C(CCCC1CCN(Cc2ccccc2Br)CC1)c1ncco1 [Example 85, 4-[1-(2-Bromo-benzyl)-piperidin-4-yl]-1-oxazol-2-yl-butan-1-one] | 240 nM | 315 nM |
| O=C(CCCC1CCN(Cc2ccc(C(F)(F)F)c(F)c2)CC1)c1ncco1 [Example 137, 4-[1-(3-Fluoro-4-trifluoromethyl-benzyl)-piperidin-4-yl]-1-oxazol-2-yl-butan-1-one] | 380 nM | 10 nM |
| O=C(CCCC1CCN(Cc2ccc(OC3CCCCC3)cc2)CC1)c1ncco1 [Example 134, 4-[1-(4-Cyclohexyloxy-benzyl)-piperidin-4-yl]-1-oxazol-2-yl-butan-1-one] | 119 nM | 119 nM |
| O=C(CCCC1CCN(Cc2ccc3c(c2)OC(F)(F)O3)CC1)c1ncco1 [Example 125, 4-[1-(2,2-Difluoro-benzo[1,3]dioxol-5-ylmethyl)-piperidin-4-yl]-1-oxazol-2-yl-butan-1-one] | 81 nM | 4 nM |
| Cc1cccc(CN2CCC(CCCC(=O)c3ncco3)CC2)c1 [Example 19, 4-[1-(3-Methyl-benzyl)-piperidin-4-yl]-1-oxazol-2-yl-butan-1-one] | 305 nM | 90 nM |
| O=C(CCCC1CCN(C(=O)CC2CCCCC2)CC1)c1ncco1 [Example 49, 4-[1-(2-Cyclohexyl-acetyl)-piperidin-4-yl]-1-oxazol-2-yl-butan-1-one] | 350 nM | 100 nM |
| O=C(CCCC1CCN(Cc2ccnc3ccccc23)CC1)c1ncco1 [Example 93, 1-Oxazol-2-yl-4-(1-quinolin-4-ylmethyl-piperidin-4-yl)-butan-1-one] | 923 nM | 70 nM |
| Cc1ccc(S(=O)(=O)N2CCC(CCCC(=O)c3ncco3)CC2)cc1 [Example 52, 1-Oxazol-2-yl-4-[1-(toluene-4-sulfonyl)-piperidin-4-yl]-butan-1-one] | 13 nM | 1040 nM |
| O=C(CCCC1CCN(C(=O)CCC2CCCCC2)CC1)c1ncco1 [Example 50, 4-[1-(3-Cyclohexyl-propionyl)-piperidin-4-yl]-1-oxazol-2-yl-butan-1-one] | 10 nM | 2 nM |
| O=C(CCCC1CCN(Cc2cccc(F)c2F)CC1)c1ncco1 [Example 81, 4-[1-(2,3-Difluoro-benzyl)-piperidin-4-yl]-1-oxazol-2-yl-butan-1-one] | 1000 nM | 200 nM |

Results, then the compound that gave them:

| IC50 [1] | IC50 [2] | Compound |
| --- | --- | --- |
| 130 nM | 109 nM | Cc1ccccc1CCC(=O)N1CCC(CCCC(=O)c2ncco2)CC1 [Example 45, 1-Oxazol-2-yl-4-[1-(3-o-tolyl-propionyl)-piperidin-4-yl]-butan-1-one] |
| 55 nM | 10 nM | CC(C)COC(=O)N1CCC(CCCC(=O)c2ncco2)CC1 [Example 68, 4-(4-Oxazol-2-yl-4-oxo-butyl)-piperidine-1-carboxylic acid isobutyl ester] |
| 19 nM | 30 nM | CC(C)(C)OC(=O)N1CCC(CCCC(=O)c2ncc(C(=O)O)o2)CC1 [Example 130, 4-[4-(5-Carboxy-oxazol-2-yl)-4-oxo-butyl]-piperidine-1-carboxylic acid tert-butyl ester] |
| 110 nM | 14 nM | O=C(CCCC1CCN(S(=O)(=O)c2ccc(Cl)c(Cl)c2)CC1)c1ncco1 [Example 62, 4-[1-(3,4-Dichloro-benzenesulfonyl)-piperidin-4-yl]-1-oxazol-2-yl-butan-1-one] |
| 75 nM | 43 nM | O=C(CCCC1CCN(C(=O)Cc2ccc(Cl)cc2)CC1)c1ncco1 [Example 40, 4-{1-[2-(4-Chloro-phenyl)-acetyl]-piperidin-4-yl}1-oxazol-2-yl-butan-1-one] |
| 1500 nM | 84 nM | O=C(CCCC1CCN(Cc2ccc(-n3ccnc3)cc2)CC1)c1ncco1 [Example 141, 4-[1-(4-Imidazol-1-yl-benzyl)-piperidin-4-yl]-1-oxazol-2-yl-butan-1-one] |
| 712 nM | 640 nM | O=C(CCCC1CCN(C(=O)Cc2cccc(Cl)c2)CC1)c1ncco1 [Example 41, 4-{1-[2-(3-Chloro-phenyl)-acetyl]-piperidin-4-yl}-1-oxazol-2-yl-butan-1-one] |
| 1000 nM | 313 nM | O=C(CCCC1CCN(Cc2cccc(Br)n2)CC1)c1ncco1 [Example 77, 4-[1-(6-Bromo-pyridin-2-ylmethyl)-piperidin-4-yl]-1-oxazol-2-yl-butan-1-one] |
